From paper PMC2932999 (Journal of Medicinal Chemistry, 2010)

Tests used:
[1] = target: E197 Perth NA (B/Perth/211/2001 D197E mutant neuraminidase) (Influenza B virus, UniProt Q3S340, D197E); assay type: biochemical, influenza B virus B/Perth/211/2001; conditions: read-out: Km for MUNANA
[2] = target: N197 Yamagata NA (B/Yamagata/186/05 D197N mutant neuraminidase) (Influenza B virus, UniProt Q38G88, D197N); assay type: biochemical, influenza B virus B/Yamagata/186/05; conditions: read-out: Km for MUNANA
[3] = tested on: mutant NAs (B/Perth E197 and B/Yamagata N197); assay type: biochemical, influenza B virus

With `CC(=O)N[C@H]1[C@H]([C@H](O)[C@H](O)CO)OC(Oc2ccc3c(C)cc(=O)oc3c2)(C(=O)O)C[C@@H]1O` (stereo partly shown) [MUNANA, 4-methylumbelliferyl-N-acetylneuraminic acid] the Km [1] was 12.1 ± 3.7 µM and the Km [2] was 18.8 ± 4.5 µM.
For `CCC(CC)[C@H](NC(C)=O)[C@@H]1[C@H](O)[C@@H](C(=O)O)C[C@H]1NC(=N)N` [compound 3, peramivir], the “slow binding of inhibitor” value [3] was “loss of slow binding”.
In the case of `O=C(O)C1(F)O[C@H]([C@H](O)[C@H](O)CO)[C@H](O)[C@@H](O)C1F` (stereo partly drawn) [compound 4, 2,3-difluoro-2-keto-3-deoxy-D-glycero-D-galactononulosonic acid], the “resistance of mutant NAs compared to D197 wild type NA” value [3] is reported as “no resistance”.
